Source: patent publication US20190265319A1, “SYSTEM AND METHOD FOR SMALL MOLECULE ACCURATE RECOGNITION TECHNOLOGY ("SMART")” (THE REGENTS OF THE UNIVERSITY OF CALIFORNIA, priority 2016, published 2019)
Peptide text beside a SMILES is read from it.

tested on: H-460 human lung cancer cells; format: cell-based; details: not given

Molecule	H-460 cytotoxicity
C#CCCC[C@@H]1OC(=O)[C@H](C(C)C)NC(=O)[C@H](C)N(C)C(=O)[C@@H]2CCCN2C(=O)[C@H](Cc2ccccc2)OC(=O)[C@H](C(C)C)N(C)C(=O)[C@H](C(C)C)NC(=O)C1(C)C [viequeamide B] (HELM PEPTIDE1{V.[meV].[O=C([C@H](Cc1ccccc1)O[*:1])[*:2]].P.[meA].V}|CHEM1{[C#CCCC[C@H](O[*:2])C(C)(C)C(=O)[*:1]]}$PEPTIDE1,CHEM1,1:R1-1:R1|PEPTIDE1,CHEM1,6:R2-1:R2$$$V2.0)	no appreciable H-460 cytotoxicity
C=CCCC[C@@H]1OC(=O)[C@H](C(C)C)NC(=O)[C@H](C)N(C)C(=O)[C@@H]2CCCN2C(=O)[C@H](Cc2ccccc2)OC(=O)[C@H](C(C)C)N(C)C(=O)[C@H](C(C)C)NC(=O)C1(C)C [viequeamide C] (HELM PEPTIDE1{V.[meV].[O=C([C@H](Cc1ccccc1)O[*:1])[*:2]].P.[meA].V}|CHEM1{[C=CCCC[C@H](O[*:2])C(C)(C)C(=O)[*:1]]}$PEPTIDE1,CHEM1,1:R1-1:R1|PEPTIDE1,CHEM1,6:R2-1:R2$$$V2.0)	no appreciable H-460 cytotoxicity
CCCCC[C@@H]1OC(=O)[C@H](C(C)C)NC(=O)[C@H](C)N(C)C(=O)[C@@H]2CCCN2C(=O)[C@H](Cc2ccccc2)OC(=O)[C@H](C(C)C)N(C)C(=O)[C@H](C(C)C)NC(=O)C1(C)C [viequeamide D] (HELM PEPTIDE1{V.[meV].[O=C([C@H](Cc1ccccc1)O[*:1])[*:2]].P.[meA].V}|CHEM1{[CCCCC[C@H](O[*:2])C(C)(C)C(=O)[*:1]]}$PEPTIDE1,CHEM1,1:R1-1:R1|PEPTIDE1,CHEM1,6:R2-1:R2$$$V2.0)	no appreciable H-460 cytotoxicity
viequeamide G	no appreciable H-460 cytotoxicity
viequeamide H	no appreciable H-460 cytotoxicity
viequeamide X	no appreciable H-460 cytotoxicity

same assay, conditions: H-460 human lung cancer cells

Molecule	IC50
viequeamide A2	620 nM
viequeamide A3	1980 nM
